# Experimental data as given in patent publication US4892883A, “Pharmaceutical compositions containing bilobalide for the treatment of neuropathies Ai” (Willman - Schwabe GmbH & Co., priority 1973, dated 1990).
# Assays:
# Monilia fructicola = details: cited from earlier work
# [1] = tested on: cholinergic mechanisms of the central nervous system; experiment: Stimulating effect on cholinergic mechanisms of the central nervous system; details: in vivo
# Description: The stimulating effects of the extract on the cholinergic system of the central nervous system were determined in various experiments. In one of these experiments the influence of the extract on the spontaneous climbing behaviour (SCB) was examined according to the method described by Marcais et al. (Psychopharmacology; 56, 233-234, 1978).
# Escherichia coli = details: cited from earlier work
# [2] = tested on: neuropathy on the triethyltin chloride model; experiment: Protective action against TET-induced neuropathy, hotplate test (Experiment 4, Table III); assay type: in vivo, rat (Sprague-Dawley); details: overall conclusion of Experiments 1 to 5
# mouse ear = details: cited from earlier work
# Penicillium glaucum = details: cited from earlier work
# [3] = tested on: neuropathy on the triethyltin chloride model; experiment: Curative action on TET-induced neuropathy, hotplate test (Experiment 5, Table IV); assay type: in vivo, rat (Sprague-Dawley); details: for Body weight after intoxication / Food consumption after intoxication / Hotplate reaction time after intoxication / Water consumption after intoxication: after 6 days TET, before treatment
# Description: In a similar manner, the curative action of bilobalid or extract containing bilobalide is investigated. The animals are offered a 0.002 per cent TET solution in place of drinking water for 6 days. Subsequently (from the 7th day), the TET solution is replaced by tap water and, simultaneously, the daily oral treatment is started. Treatment is continued for 6 days. The measured parameters (body weight, consumption of food and water, hotplate reaction time) are determined on the 6th day before the treatment and on the 14th day after the treatment.
# [4] = tested on: existent neuropathies, neurological and mental functions; experiment: Clinical investigations; assay type: in vivo
# [5] = tested on: male Sprague-Dawley rats given hexachlorophene (brain water and electrolyte contents); experiment: Protective effect against hexachlorophene intoxication (Experiment 2, Table II); assay type: in vivo, rat (Sprague-Dawley); details: hexachlorophene i.p.
# Description: In another experiment, male Sprague-Dawley rats (200-250 g body weight) receive intraperitoneal injections of 20 mg/kg hexachlorophene (suspended in 0.2% agar) for 2 days and only 10 mg/kg on the 3rd day. The test substances are administered orally after administration of hexachlorophene.
# The control animals receive only 0.2% agar i.p. or tap water orally. On the 4th day, the animals are sacrificed and the water and electrolyte contents in the brain are determined. The body weight of the animals is measured daily throughout the 4 days.
# [6] = tested on: neuropathy on the triethyltin chloride model; experiment: Protective action against TET-induced neuropathy, hotplate test (Experiment 4, Table III); assay type: in vivo, rat (Sprague-Dawley); details: TET 0.002%
# Description: The investigations of the protective action against damage to myelin and its expression as neuropathy is likewise carried out on the triethyltin chloride model. When the animals are treated not for 14 days but for only 6 days with a 0.002 per cent TET solution administered in place of the drinking water, they show various signs of neuropathy although no cerebral oedema is detectable in this period. The neuropathy is quantified by measuring the consumption of food and water and by the changes in body weight. In addition, as a specific parameter, the pain reaction time in a hotplate test (at 50° C.) is measured (J. Pharm. Pharmacol., 9 (1957), 381).
# [7] = tested on: male Sprague-Dawley rats given triethyltin chloride (brain water and electrolyte contents); experiment: Protective effect against triethyltin chloride (TET) intoxication (Experiment 1, Table I); assay type: in vivo, rat (Sprague-Dawley); details: for Brain % water / Brain K^+ / Brain Na^+ / Brain Na^+ /K^+ / Mean body weight, 14 days / Mean body weight, initial: TET 0.002%
# Description: Male Sprague-Dawley rats (200-300 g body weight) are offered an aqueous solution containing 0.002 per cent triethyltin chloride (abbreviated to TET) as drinking liquid for 14 days. Control animals received water. The Gingko biloba monoextract (EGB) with or without bilobalide and the various test substances are administered orally 1×daily throughout these 14 days. On day 15, the animals are sacrificed, the brain is removed and its water and electrolyte contents are determined. The body weight of the animals during the experiment is checked daily.
# [8] = 5 mg/kg p.o. daily 6 days after TET
# [9] = 10 mg/kg p.o. daily 6 days after TET
compound,measurement,setting,value
"CC(C)(C)C1(O)CC2OC(=O)CC23C(=O)OC2OC(=O)C(O)C231 (centres unmarked) [Bilobalide, bilobalide]",fungicidal action,Monilia fructicola,no fungicidal action
same,stimulating effect on cholinergic mechanisms of the central nervous system,[1],stimulating effect on the cholinergic mechanisms of the central nervous system
same,bactericidal action,Escherichia coli,nor any bactericidal action
same,prevention of neurotoxic signs and of cerebral oedema,[2],prevents the occurrence of neurotoxic signs and of cerebral oedema
same,inflammatory action,mouse ear,no inflammatory action
same,fungicidal action,Penicillium glaucum,no fungicidal action
same,Body weight after treatment,[3]; [8],242 g
same,Food consumption after treatment,[3]; [8],17.4 g/animal/day
same,Hotplate reaction time after treatment,[3]; [8],61.58 s
same,Water consumption after treatment,[3]; [8],31.4 ml/animal/day
same,Body weight after intoxication,[3]; 5 mg/kg p.o. group,236 g
same,Food consumption after intoxication,[3]; 5 mg/kg p.o. group,10.4 g/animal/day
same,Hotplate reaction time after intoxication,[3]; 5 mg/kg p.o. group,88.1 ± 5.67 s
same,Water consumption after intoxication,[3]; 5 mg/kg p.o. group,11.4 ml/animal/day
same,Body weight after treatment,[3]; [9],232 g
same,Food consumption after treatment,[3]; [9],18.6 g/animal/day
same,Hotplate reaction time after treatment,[3]; [9],48.58 ± 18.44 s
same,Water consumption after treatment,[3]; [9],23.1 ml/animal/day
same,Body weight after intoxication,[3]; 10 mg/kg p.o. group,227 g
same,Food consumption after intoxication,[3]; 10 mg/kg p.o. group,8.9 g/animal/day
same,Hotplate reaction time after intoxication,[3]; 10 mg/kg p.o. group,87.36 ± 7.46 s
same,Water consumption after intoxication,[3]; 10 mg/kg p.o. group,12.7 ml/animal/day
same,regression of pre-existent damage,[3]; overall conclusion,pre-existent damage can be made to regress more quickly
same,"effects on existent neuropathies, neurological and mental functions",[4],"favourable effects on existent neuropathies, neurological and mental functions"
same,"Mean body weight, 4th day",[5]; 5 mg/kg p.o.,270 g
same,Brain % water,"[5]; 5 mg/kg p.o., 4th day",77.93 ± 0.17%
same,Brain K^+,"[5]; 5 mg/kg p.o., 4th day",414.5 ± 4.4 mmol/kg dry weight
same,Brain Na^+,"[5]; 5 mg/kg p.o., 4th day",187.9 ± 4.0 mmol/kg dry weight
same,Brain Na^+ /K^+,"[5]; 5 mg/kg p.o., 4th day",0.45 ± 0.01
same,"Mean body weight, initial","[5]; 5 mg/kg p.o., initial",264 g
same,protection from cerebral oedema and reduction in body weight,[5]; oral,protects the animals from the development of cerebral oedema and prevents the reduction in body weight
same,"Food consumption, final",[6]; 10 mg/kg/day p.o. 6 days,22.1 g/animal/day
same,"Mean body weight, final",[6]; 10 mg/kg/day p.o. 6 days,261 g
same,"Water consumption, final",[6]; 10 mg/kg/day p.o. 6 days,21.9 ml/animal/day
same,"Hotplate reaction time, final","[6]; 10 mg/kg/day p.o. 6 days, 50° C.",17.9 s
same,"Hotplate reaction time, initial","[6]; 10 mg/kg/day p.o., 50° C., initial",28.9 s
same,"Food consumption, initial","[6]; 10 mg/kg/day p.o., initial",24.3 g/animal/day
same,"Mean body weight, initial","[6]; 10 mg/kg/day p.o., initial",241 g
same,"Water consumption, initial","[6]; 10 mg/kg/day p.o., initial",35.1 ml/animal/day
same,protective action against neuropathic signs,"[6]; oral, 6 days",good protective action against the neuropathic signs
same,Brain % water,[7]; 5 mg/kg p.o. 1×daily 14 days,78.57 ± 0.19%
same,Brain K^+,[7]; 5 mg/kg p.o. 1×daily 14 days,418.9 ± 14.4 mmol/kg dry weight
same,Brain Na^+,[7]; 5 mg/kg p.o. 1×daily 14 days,162.6 ± 5.4 mmol/kg dry weight
same,Brain Na^+ /K^+,[7]; 5 mg/kg p.o. 1×daily 14 days,0.39 ± 0.020
same,"Mean body weight, 14 days",[7]; 5 mg/kg p.o. 1×daily 14 days,323 g
same,"Mean body weight, initial",[7]; 5 mg/kg p.o. 1×daily,288 g
same,Brain % water,[7]; 10 mg/kg p.o. 1×daily 14 days,78.16 ± 0.09%
same,Brain K^+,[7]; 10 mg/kg p.o. 1×daily 14 days,452.7 ± 12.9 mmol/kg dry weight
same,Brain Na^+,[7]; 10 mg/kg p.o. 1×daily 14 days,198.3 ± 2.74 mmol/kg dry weight
same,Brain Na^+ /K^+,[7]; 10 mg/kg p.o. 1×daily 14 days,0.44 ± 0.04
same,"Mean body weight, 14 days",[7]; 10 mg/kg p.o. 1×daily 14 days,318 g
same,"Mean body weight, initial",[7]; 10 mg/kg p.o. 1×daily,272 g
same,Brain % water,[7]; 20 mg/kg p.o. 1×daily 14 days,77.75 ± 0.11%
same,Brain K^+,[7]; 20 mg/kg p.o. 1×daily 14 days,400.6 mmol/kg dry weight
same,Brain Na^+,[7]; 20 mg/kg p.o. 1×daily 14 days,187.9 ± 10.4 mmol/kg dry weight
same,Brain Na^+ /K^+,[7]; 20 mg/kg p.o. 1×daily 14 days,0.45 ± 0.05
same,"Mean body weight, 14 days",[7]; 20 mg/kg p.o. 1×daily 14 days,325 g
same,"Mean body weight, initial",[7]; 20 mg/kg p.o. 1×daily,288 g
same,protective effect against decrease in body weight and increase in brain water and Na^+,"[7]; oral, TET 14 days",good protective effect
